In PubChem BioAssay (NCI):
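Method: 48-hour compound exposure of cells in 96-well plates, five concentrations, linear interpolation of endpoints. TGI is the concentration that stops growth completely.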

Experiments:
Assay in all cases: NCI anticancer screen, dose series, 48 h
NCI-H23 lung = system: NCI-H23 lung
A498 renal = system: A498 renal
MCF7 breast = system: MCF7 breast
BT-549 breast = system: BT-549 breast
EKVX NSCLC = system: EKVX NSCLC
NCI/ADR-RES ovarian = system: NCI/ADR-RES ovarian
NCI-H460 lung = system: NCI-H460 lung
COLO 205 colon = system: COLO 205 colon
HOP-92 NSCLC = system: HOP-92 NSCLC
T-47D breast = system: T-47D breast
SK-OV-3 ovarian = system: SK-OV-3 ovarian
M14 melanoma = system: M14 melanoma
HT29 colon = system: HT29 colon
OVCAR-4 ovarian = system: OVCAR-4 ovarian
ACHN renal = system: ACHN renal
K-562 leukemia = system: K-562 leukemia
KM12 colon = system: KM12 colon
SW-620 colon = system: SW-620 colon
CAKI-1 renal = system: CAKI-1 renal
NCI-H522 lung = system: NCI-H522 lung
MDA-MB-231 breast = system: MDA-MB-231 breast
CCRF-CEM leukemia = system: CCRF-CEM leukemia
SK-MEL-2 melanoma = system: SK-MEL-2 melanoma
OVCAR-3 ovarian = system: OVCAR-3 ovarian
SF-539 CNS = system: SF-539 CNS
HCT-15 colon = system: HCT-15 colon
OVCAR-8 ovarian = system: OVCAR-8 ovarian
MDA-MB-435 = system: MDA-MB-435
SN12C renal = system: SN12C renal
SNB-19 CNS = system: SNB-19 CNS
A549 NSCLC = system: A549 NSCLC
LOX IMVI melanoma = system: LOX IMVI melanoma
HOP-62 NSCLC = system: HOP-62 NSCLC
PC-3 prostate = system: PC-3 prostate
SF-295 CNS = system: SF-295 CNS
UO-31 renal = system: UO-31 renal
SR leukemia = system: SR leukemia
786-0 renal = system: 786-0 renal
MALME-3M melanoma = system: MALME-3M melanoma
NCI-H226 lung = system: NCI-H226 lung
OVCAR-5 ovarian = system: OVCAR-5 ovarian
SK-MEL-5 melanoma = system: SK-MEL-5 melanoma
U251 CNS = system: U251 CNS
DU-145 prostate = system: DU-145 prostate
UACC-257 melanoma = system: UACC-257 melanoma
SNB-75 CNS = system: SNB-75 CNS
TK-10 renal = system: TK-10 renal
HCC-2998 colon = system: HCC-2998 colon
SF-268 CNS = system: SF-268 CNS
RXF 393 renal = system: RXF 393 renal
MOLT-4 leukemia = system: MOLT-4 leukemia
MDA-N = system: MDA-N
HL-60(TB) leukemia = system: HL-60(TB) leukemia

Compound: C/C(=N\Nc1nc2ccccc2n1C)c1cnccn1
- TGI (NCI-H23 lung): > 100 µM
- TGI (A498 renal): > 63.3 µM
- TGI (MCF7 breast): > 100 µM
- TGI (BT-549 breast): > 100 µM
- TGI (EKVX NSCLC): > 100 µM
- TGI (NCI/ADR-RES ovarian): 3.14 µM
- TGI (NCI-H460 lung): > 100 µM
- TGI (COLO 205 colon): > 100 µM
- TGI (HOP-92 NSCLC): 6.83 µM
- TGI (T-47D breast): > 100 µM
- TGI (SK-OV-3 ovarian): > 100 µM
- TGI (M14 melanoma): 6.53 µM
- TGI (HT29 colon): > 42.5 µM
- TGI (OVCAR-4 ovarian): > 100 µM
- TGI (ACHN renal): > 100 µM
- TGI (K-562 leukemia): > 100 µM
- TGI (KM12 colon): > 33.2 µM
- TGI (SW-620 colon): > 100 µM
- TGI (CAKI-1 renal): > 100 µM
- TGI (NCI-H522 lung): > 35.8 µM
- TGI (MDA-MB-231 breast): 71.9 µM
- TGI (CCRF-CEM leukemia): 6.17 µM
- TGI (SK-MEL-2 melanoma): > 100 µM
- TGI (OVCAR-3 ovarian): 2.75 µM
- TGI (SF-539 CNS): > 100 µM
- TGI (HCT-15 colon): > 100 µM
- TGI (OVCAR-8 ovarian): > 100 µM
- TGI (MDA-MB-435): > 100 µM
- TGI (SN12C renal): > 100 µM
- TGI (SNB-19 CNS): > 100 µM
- TGI (A549 NSCLC): > 100 µM
- TGI (LOX IMVI melanoma): > 20 µM
- TGI (HOP-62 NSCLC): 37 µM
- TGI (PC-3 prostate): > 100 µM
- TGI (SF-295 CNS): > 100 µM
- TGI (UO-31 renal): > 100 µM
- TGI (SR leukemia): > 100 µM
- TGI (786-0 renal): > 39.2 µM
- TGI (MALME-3M melanoma): > 100 µM
- TGI (NCI-H226 lung): > 100 µM
- TGI (OVCAR-5 ovarian): > 100 µM
- TGI (SK-MEL-5 melanoma): 10 µM
- TGI (U251 CNS): > 100 µM
- TGI (DU-145 prostate): > 100 µM
- TGI (UACC-257 melanoma): > 25 µM
- TGI (SNB-75 CNS): > 100 µM
- TGI (TK-10 renal): > 100 µM
- TGI (HCC-2998 colon): > 100 µM
- TGI (SF-268 CNS): > 100 µM
- TGI (RXF 393 renal): > 100 µM
- TGI (MOLT-4 leukemia): > 100 µM
- TGI (MDA-N): > 100 µM
- TGI (HL-60(TB) leukemia): 0.058 µM
